Legend:
Jurkat cells = assay: calcium signal (Fluo-4) of Jurkat cells after stimulation in open microwells; type: cell-based, human; conditions: Fluo-4 fluorescence, OKT3 10 μg/mL, average of a series of 3 experiments
Procedure: Cells from the Jurkat cell line (human Leukemic T cells) were obtained from ATCC and cultured in RPMI 1640 medium supplemented with 10% inactivated FBS medium, 10 mM Hepes, 2 mM Ultraglutamine and 1 mM sodium pyruvate, 1% Penicillin/Streptomycin in 25 cm^2 flasks at 37° C. and 5% CO2.
The OKT3 hybridomas were cultured in bioreactors (CellLine, Integra Biosciences) in complete RPMI 1640 medium containing 3% FBS and the supernatant was collected 2 times a week. The purification of monoclonal antibodies was performed using a double saturated ammonium sulfate precipitation at 30% and 50%, followed by dialysis in PBS. The purity of OKT3 was assessed by SDS-PAGE gel and the amount of antibody was determined through NanoDrop (Thermo Scientific). The antibody was then frozen at −80° C. before use.
For the assay in open microwells according to the present invention, Jurkat cells were labeled with Fluo-4 20 μM in HBSS, centrifuged and resuspended in serum-free medium (RPMI 1640 with 25 mM Hepes or HBSS) at a concentration of 1.6×10^6 cells/mL in 1.5 mL Eppendorf tubes used as input reservoirs for the open reversed microwell system. […] The images were acquired by a camera connected to the microscope at a distance of 1 minute and processed by software developed in LabView, quantifying the dynamic performance of the same signal on each sample cell.

SU-DHL-4 cancer cells = assay: open well assay of Rituximab on SU-DHL-4 lymphoma cells (Calcein-AM / PI, time-lapse); type: cell-based; conditions: Rituximab 10 μg/mL, human serum 1%, PI 5 μM; versus CTRL; FIG. 11A
Procedure: Cells: SU-DHL-4 lymphoma cells and Raji cells were used (ATCC CCL-86). 3·10^5 cells/mL were cultured in RPMI medium supplemented with 10% FBS, 1% […]/streptomycin at 37° C., 95% RH, 5% CO2. The cells were amplified, dividing them when in confluence. PBMC were isolated from blood by centrifugation in gradient. Whole blood from healthy donors was collected into tubes treated with anticoagulants according to the directive “ethical principles and guidelines for the protection of humans in research”. Isolated PBMC were washed twice with 10 mL cold HBSS after lysis of red blood cells. The concentration of cells and their viability was determined with Trypan Blue on haemocytometer. The concentration was adjusted to 1 million cells/mL.
Different batches of SU-DHL-4 or Raji cells were harvested at the peak of their growth, washed with PBS and counted in a hemocytometer with Trypan Blue. The cell concentration was adjusted to 1 million cells/mL and they were labeled with Calcein AM (CAM) 5 nM for flow cytometry and 250 nM for the assay according to the present invention. […] Cell viability was finally assessed by PI and flow cytometry. […]
The images were acquired in brightfield (BF) to evaluate the morphological characteristics and then in fluorescence to evaluate the signal in DAPI bands (ex: 360/40 nm, em: 460/50 nm), FITC (ex: 480/30 nm, em: 535/40 nm), TRITC (ex: 540/25 nm, em: 605/55 nm). […]

Substance | increase of the signal peak, compared to the baseline value (Jurkat cells) [%+/−90%] | dead cells (PI, TRITC channel) in time-lapse images (SU-DHL-4 cancer cells)
OKT3: monoclonal antibody purified from OKT3 hybridoma supernatant | 178 | 
RTX: monoclonal antibody Rituximab |  | present only at T2 and T3 in the RTX group
